In the assay the target is Tyrosine-protein phosphatase non-receptor type 22 (Homo sapiens) (UniProt Q9Y2R2). Briefly: LYP phosphatase inhibitor potency, dose response, biochemical, pCAP substrate, fluorescence intensity (AID 435027). As to conditions: recombinant LYP.
Chain of Tyrosine-protein phosphatase non-receptor type 22 (Homo sapiens) (Q9Y2R2 whole entry, looked up): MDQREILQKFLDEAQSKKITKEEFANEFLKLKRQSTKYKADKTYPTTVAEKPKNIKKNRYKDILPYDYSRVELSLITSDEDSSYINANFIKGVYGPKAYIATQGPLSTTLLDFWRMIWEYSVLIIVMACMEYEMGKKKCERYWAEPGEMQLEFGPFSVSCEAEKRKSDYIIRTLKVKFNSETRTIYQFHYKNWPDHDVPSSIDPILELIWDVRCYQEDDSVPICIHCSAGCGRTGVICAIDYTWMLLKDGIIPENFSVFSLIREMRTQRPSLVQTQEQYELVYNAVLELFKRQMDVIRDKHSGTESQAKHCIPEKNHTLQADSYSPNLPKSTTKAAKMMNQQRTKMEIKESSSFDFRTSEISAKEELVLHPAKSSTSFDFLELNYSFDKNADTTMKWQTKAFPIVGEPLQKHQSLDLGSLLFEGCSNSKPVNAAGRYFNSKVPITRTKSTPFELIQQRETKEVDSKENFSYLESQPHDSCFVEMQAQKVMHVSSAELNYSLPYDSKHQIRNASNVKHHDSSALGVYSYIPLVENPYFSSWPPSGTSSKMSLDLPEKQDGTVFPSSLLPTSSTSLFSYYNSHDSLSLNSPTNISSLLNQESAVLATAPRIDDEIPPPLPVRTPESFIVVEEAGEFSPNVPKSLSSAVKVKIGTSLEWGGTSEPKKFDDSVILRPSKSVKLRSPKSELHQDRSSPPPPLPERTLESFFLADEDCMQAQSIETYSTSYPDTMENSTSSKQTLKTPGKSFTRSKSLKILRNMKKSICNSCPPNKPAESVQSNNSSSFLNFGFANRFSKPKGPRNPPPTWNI

What is called IC50 is the concentration at which inhibition is half-maximal. Turning to `Cc1ccc(/C=C/c2nc3sc(C(=O)O)c(C)c3c(=O)[nH]2)cc1[N+](=O)[O-]`, the IC50 is 4.58 µM. To `O=C(O)CCCN1C(=O)/C(=C/c2ccc(-c3nc4ccccc4s3)o2)SC1=S` belongs 4.76 µM.

Source of the values: PubChem BioAssay AID435027 (Sanford-Burnham Center for Chemical Genomics, 2010).
